#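 These data come from cells grown in 96-well plates and exposed to compound for 48 hours at five concentrations. The concentration for full growth arrest is given as TGI.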
# Columns and labels:
# Assay in all cases: inhibition of tumour cell growth, NCI panel, 48 h
# 786-0 renal = system: 786-0 renal
# A498 renal = system: A498 renal
# A549 NSCLC = system: A549 NSCLC
# ACHN renal = system: ACHN renal
# COLO 205 colon = system: COLO 205 colon
# DU-145 prostate = system: DU-145 prostate
# EKVX NSCLC = system: EKVX NSCLC
# HCC-2998 colon = system: HCC-2998 colon
# HCT-116 colon = system: HCT-116 colon
# HCT-15 colon = system: HCT-15 colon
# HL-60(TB) leukemia = system: HL-60(TB) leukemia
# HOP-62 NSCLC = system: HOP-62 NSCLC
# HOP-92 NSCLC = system: HOP-92 NSCLC
# HT29 colon = system: HT29 colon
# IGROV1 ovarian = system: IGROV1 ovarian
# K-562 leukemia = system: K-562 leukemia
# KM12 colon = system: KM12 colon
# LOX IMVI melanoma = system: LOX IMVI melanoma
# M14 melanoma = system: M14 melanoma
# MALME-3M melanoma = system: MALME-3M melanoma
# MCF7 breast = system: MCF7 breast
# MDA-MB-435 = system: MDA-MB-435
# MDA-N = system: MDA-N
# NCI-H23 lung = system: NCI-H23 lung
# NCI-H460 lung = system: NCI-H460 lung
# NCI-H522 lung = system: NCI-H522 lung
# NCI/ADR-RES ovarian = system: NCI/ADR-RES ovarian
# OVCAR-3 ovarian = system: OVCAR-3 ovarian
# OVCAR-4 ovarian = system: OVCAR-4 ovarian
# OVCAR-5 ovarian = system: OVCAR-5 ovarian
# OVCAR-8 ovarian = system: OVCAR-8 ovarian
# PC-3 prostate = system: PC-3 prostate
# SF-268 CNS = system: SF-268 CNS
# SF-295 CNS = system: SF-295 CNS
# SF-539 CNS = system: SF-539 CNS
# SK-MEL-2 melanoma = system: SK-MEL-2 melanoma
# SK-MEL-28 melanoma = system: SK-MEL-28 melanoma
# SK-MEL-5 melanoma = system: SK-MEL-5 melanoma
# SK-OV-3 ovarian = system: SK-OV-3 ovarian
# SN12C renal = system: SN12C renal
# SNB-19 CNS = system: SNB-19 CNS
# SNB-75 CNS = system: SNB-75 CNS
# SR leukemia = system: SR leukemia
# SW-620 colon = system: SW-620 colon
# T-47D breast = system: T-47D breast
# TK-10 renal = system: TK-10 renal
# U251 CNS = system: U251 CNS
# UACC-257 melanoma = system: UACC-257 melanoma
# UACC-62 melanoma = system: UACC-62 melanoma
# BT-549 breast = system: BT-549 breast
# CAKI-1 renal = system: CAKI-1 renal
# CCRF-CEM leukemia = system: CCRF-CEM leukemia
# MDA-MB-231 breast = system: MDA-MB-231 breast
# MOLT-4 leukemia = system: MOLT-4 leukemia
# NCI-H226 lung = system: NCI-H226 lung
# RPMI-8226 leukemia = system: RPMI-8226 leukemia
# RXF 393 renal = system: RXF 393 renal
# UO-31 renal = system: UO-31 renal
compound,measurement,setting,value
O=P1(O)C=CC2(CCCC2)O1,TGI,786-0 renal,> 100 µM
same,TGI,A498 renal,> 100 µM
same,TGI,A549 NSCLC,> 100 µM
same,TGI,ACHN renal,> 100 µM
same,TGI,COLO 205 colon,> 100 µM
same,TGI,DU-145 prostate,> 100 µM
same,TGI,EKVX NSCLC,> 100 µM
same,TGI,HCC-2998 colon,> 100 µM
same,TGI,HCT-116 colon,> 100 µM
same,TGI,HCT-15 colon,> 100 µM
same,TGI,HL-60(TB) leukemia,> 100 µM
same,TGI,HOP-62 NSCLC,> 100 µM
same,TGI,HOP-92 NSCLC,> 100 µM
same,TGI,HT29 colon,> 100 µM
same,TGI,IGROV1 ovarian,> 100 µM
same,TGI,K-562 leukemia,> 100 µM
same,TGI,KM12 colon,> 100 µM
same,TGI,LOX IMVI melanoma,> 100 µM
same,TGI,M14 melanoma,> 100 µM
same,TGI,MALME-3M melanoma,> 100 µM
same,TGI,MCF7 breast,> 100 µM
same,TGI,MDA-MB-435,> 100 µM
same,TGI,MDA-N,> 100 µM
same,TGI,NCI-H23 lung,> 100 µM
same,TGI,NCI-H460 lung,> 100 µM
same,TGI,NCI-H522 lung,> 100 µM
same,TGI,NCI/ADR-RES ovarian,> 100 µM
same,TGI,OVCAR-3 ovarian,> 100 µM
same,TGI,OVCAR-4 ovarian,> 100 µM
same,TGI,OVCAR-5 ovarian,> 100 µM
same,TGI,OVCAR-8 ovarian,> 100 µM
same,TGI,PC-3 prostate,> 100 µM
same,TGI,SF-268 CNS,> 100 µM
same,TGI,SF-295 CNS,> 100 µM
same,TGI,SF-539 CNS,> 100 µM
same,TGI,SK-MEL-2 melanoma,> 100 µM
same,TGI,SK-MEL-28 melanoma,> 100 µM
same,TGI,SK-MEL-5 melanoma,> 100 µM
same,TGI,SK-OV-3 ovarian,> 100 µM
same,TGI,SN12C renal,> 100 µM
same,TGI,SNB-19 CNS,> 100 µM
same,TGI,SNB-75 CNS,> 100 µM
same,TGI,SR leukemia,> 100 µM
same,TGI,SW-620 colon,> 100 µM
same,TGI,T-47D breast,> 100 µM
same,TGI,TK-10 renal,> 100 µM
same,TGI,U251 CNS,> 100 µM
same,TGI,UACC-257 melanoma,> 100 µM
same,TGI,UACC-62 melanoma,> 100 µM
O=c1sc2c(s1)SSSSS2,TGI,786-0 renal,> 50 µM
same,TGI,A498 renal,> 50 µM
same,TGI,A549 NSCLC,> 50 µM
same,TGI,ACHN renal,> 50 µM
same,TGI,BT-549 breast,> 50 µM
same,TGI,CAKI-1 renal,> 50 µM
same,TGI,CCRF-CEM leukemia,42.1 µM
same,TGI,COLO 205 colon,> 50 µM
same,TGI,DU-145 prostate,> 50 µM
same,TGI,EKVX NSCLC,> 50 µM
same,TGI,HCC-2998 colon,> 50 µM
same,TGI,HCT-116 colon,> 50 µM
same,TGI,HCT-15 colon,> 50 µM
same,TGI,HOP-62 NSCLC,> 50 µM
same,TGI,HOP-92 NSCLC,> 50 µM
same,TGI,HT29 colon,> 50 µM
same,TGI,IGROV1 ovarian,> 50 µM
same,TGI,K-562 leukemia,> 50 µM
same,TGI,KM12 colon,> 50 µM
same,TGI,LOX IMVI melanoma,> 50 µM
same,TGI,M14 melanoma,> 50 µM
same,TGI,MALME-3M melanoma,> 50 µM
same,TGI,MCF7 breast,> 50 µM
same,TGI,MDA-MB-231 breast,> 50 µM
same,TGI,MDA-MB-435,> 50 µM
same,TGI,MDA-N,> 50 µM
same,TGI,MOLT-4 leukemia,42.3 µM
same,TGI,NCI-H226 lung,> 50 µM
same,TGI,NCI-H23 lung,> 50 µM
same,TGI,NCI-H460 lung,> 50 µM
same,TGI,NCI-H522 lung,> 50 µM
same,TGI,NCI/ADR-RES ovarian,> 50 µM
same,TGI,OVCAR-3 ovarian,> 50 µM
same,TGI,OVCAR-4 ovarian,> 50 µM
same,TGI,OVCAR-5 ovarian,> 50 µM
same,TGI,OVCAR-8 ovarian,> 50 µM
same,TGI,PC-3 prostate,> 50 µM
same,TGI,RPMI-8226 leukemia,> 50 µM
same,TGI,RXF 393 renal,> 50 µM
same,TGI,SF-268 CNS,> 50 µM
same,TGI,SF-295 CNS,> 50 µM
same,TGI,SF-539 CNS,> 50 µM
same,TGI,SK-MEL-2 melanoma,> 50 µM
same,TGI,SK-MEL-28 melanoma,> 50 µM
same,TGI,SK-MEL-5 melanoma,> 50 µM
same,TGI,SK-OV-3 ovarian,> 50 µM
same,TGI,SN12C renal,> 50 µM
same,TGI,SNB-19 CNS,> 50 µM
same,TGI,SR leukemia,> 50 µM
same,TGI,SW-620 colon,> 50 µM
same,TGI,T-47D breast,> 50 µM
same,TGI,TK-10 renal,> 50 µM
same,TGI,U251 CNS,> 50 µM
same,TGI,UACC-257 melanoma,> 50 µM
same,TGI,UACC-62 melanoma,> 50 µM
same,TGI,UO-31 renal,> 50 µM
